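Results reflect a 48-hour exposure of cells in 96-well plates to compound at five concentrations. Abbreviation: GI50, concentration required for 50% inhibition of growth. At the TGI there is no net growth.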
Tests used:
Test in all cases: NCI tumour cell line growth inhibition, 48 h
SW-620 colon = tested on: SW-620 colon
SK-OV-3 ovarian = tested on: SK-OV-3 ovarian
A549 NSCLC = tested on: A549 NSCLC
NCI-H522 lung = tested on: NCI-H522 lung
K-562 leukemia = tested on: K-562 leukemia
HT29 colon = tested on: HT29 colon
786-0 renal = tested on: 786-0 renal
PC-3 prostate = tested on: PC-3 prostate
MDA-MB-231 breast = tested on: MDA-MB-231 breast
BT-549 breast = tested on: BT-549 breast

Row | SMILES | TGI (SW-620 colon) | TGI (SK-OV-3 ovarian) | TGI (A549 NSCLC) | TGI (NCI-H522 lung) | TGI (K-562 leukemia) | TGI (HT29 colon) | TGI (786-0 renal) | TGI (PC-3 prostate) | TGI (MDA-MB-231 breast) | TGI (BT-549 breast) | GI50 (PC-3 prostate) | GI50 (SW-620 colon) | GI50 (A549 NSCLC) | GI50 (NCI-H522 lung) | GI50 (MDA-MB-231 breast) | GI50 (K-562 leukemia) | GI50 (HT29 colon) | GI50 (BT-549 breast) | GI50 (786-0 renal) | GI50 (SK-OV-3 ovarian)
1 | COc1cc(/C=C2\CCc3ccccc3C2=O)cc(OC)c1OC | 31 µM | 35.5 µM | 50.1 µM | 28.2 µM | > 100 µM | 32.5 µM | 29.3 µM |  |  |  |  |  |  |  |  |  |  |  |  | 
2 | CS(=O)(=O)CS(=O)CS(=O)CS(=O)CC(NC(=O)CCC(N)C(=O)O)C(=O)O (stereo not given) | > 100 µM |  | > 100 µM | > 100 µM | > 100 µM | > 100 µM | > 100 µM | > 100 µM | > 100 µM | > 100 µM |  |  |  |  |  |  |  |  |  | 
3 | CC1=N/C(=C\c2cccc3ccccc23)C(=O)O1 | > 100 µM |  | > 100 µM | > 100 µM | > 100 µM | > 100 µM | > 100 µM |  |  |  |  |  |  |  |  |  |  |  |  | 
4 | N#Cc1ccc2oc3ccc(C#N)cc3c(=O)c2c1 | > 100 µM |  | 57 µM | > 100 µM | > 100 µM | 40.1 µM | 68 µM | 55 µM | > 100 µM | 53.7 µM |  |  |  |  |  |  |  |  |  | 
5 | C=CCNc1cccc2c1C(=O)c1ccccc1C2(O)CC=C (stereo not given) | 55.1 µM |  | 69 µM | 51.6 µM | 95.2 µM | 36.7 µM | 36.9 µM | 73.8 µM | 28.3 µM | 42.7 µM | 26.6 µM | 22.2 µM | 23.7 µM | 18.4 µM | 12.3 µM | 31.1 µM | 16.8 µM | 19.3 µM | 19.8 µM | 
6 | COC(=O)C(=O)C(C#N)c1ccc(Cl)c(Cl)c1 (stereo not given) | > 100 µM | > 100 µM | > 100 µM | > 100 µM | > 100 µM | > 100 µM | > 100 µM |  |  |  |  |  |  |  |  |  |  |  |  | 
7 | O=c1c2cccnc2ncn1CCCN1CCOCC1 | > 100 µM | > 100 µM | > 100 µM | > 100 µM | > 100 µM | > 100 µM | > 100 µM |  |  |  |  |  |  |  |  |  |  |  |  | 
8 | Cc1cccc(N2C(=O)C(=O)C(c3nc4ccccc4s3)C(=O)C2=O)c1C | > 100 µM | > 100 µM | > 100 µM | > 100 µM | > 100 µM | > 100 µM | > 100 µM |  |  |  |  |  |  |  |  |  |  |  |  | 
9 | O=C1CCC(=O)C12CCc1cccc(O)c12 | > 100 µM | > 100 µM | > 100 µM |  | > 100 µM | > 100 µM | > 100 µM |  |  |  |  |  |  |  |  |  |  |  |  | 
10 | COc1ccc(S(=O)(=O)N/N=C(\C)CN2C(=O)c3ccccc3C2=O)cc1 | > 100 µM | > 100 µM | > 100 µM | > 100 µM | > 100 µM | > 100 µM | > 100 µM |  |  |  |  |  |  |  |  |  |  |  |  | 
11 | Cn1cnc([N+](=O)[O-])c1Sc1nnc(C(F)(F)F)n1C | 43.3 µM | > 100 µM | > 100 µM | 23.9 µM | 63.6 µM | > 100 µM | > 100 µM |  |  |  |  |  |  |  |  |  |  |  |  | 
12 | Cc1ccc([Se][Se]c2ccc(C)cc2)cc1 | 51.6 µM | > 100 µM | > 100 µM | 16.3 µM | 28 µM | > 100 µM | 46.5 µM |  |  |  |  |  |  |  |  |  |  |  |  | 
13 | Clc1ccc(Nc2nc3ccccc3c3occc23)cc1 | 14.8 µM | 16 µM | 16.8 µM | 20.3 µM | > 50 µM |  | 15.1 µM | 13.5 µM | 24.7 µM | 15.2 µM | 7 µM | 8.04 µM | 8.13 µM | 9.83 µM | 9.1 µM | 13.6 µM |  | 8.28 µM | 8.33 µM | 8.15 µM
14 | O=C1CCC2CCOc3ccc(O)c1c32 (stereo not given) |  | > 100 µM | > 100 µM | > 100 µM | > 100 µM | > 100 µM | > 100 µM |  |  |  |  |  |  |  |  |  |  |  |  | 
15 | O=C(/C=C/c1ccc(Cl)cc1)c1ccncc1 | > 100 µM | > 100 µM | > 100 µM | > 100 µM | > 100 µM | 44.4 µM | > 100 µM |  |  |  |  |  |  |  |  |  |  |  |  | 
16 | O=C(O/N=C1/CCCC/C1=C\c1ccccc1)c1ccc(Cl)cc1 | > 100 µM | > 100 µM | > 100 µM | > 100 µM | > 100 µM | > 100 µM | > 100 µM |  |  |  |  |  |  |  |  |  |  |  |  | 
17 | CC1=N/C(=C\c2ccc([N+](=O)[O-])cc2)C(=O)O1 | > 100 µM |  | > 100 µM | > 100 µM | > 100 µM | > 100 µM | > 100 µM |  |  |  |  |  |  |  |  |  |  |  |  | 
18 | CCOC(=O)C1(C(=O)OCC)CC=C(C)CC12C(=O)Nc1ccccc12 (stereo not given) | > 100 µM | > 100 µM | > 100 µM | > 100 µM | > 100 µM | > 100 µM | > 100 µM |  |  |  |  |  |  |  |  |  |  |  |  | 
19 | CC1=C(c2cc(C(=O)Nc3cccc(C(F)(F)F)c3)nc(NC#N)n2)Sc2ccccc2N1 | > 100 µM | > 100 µM | > 100 µM |  | > 100 µM | > 100 µM | > 100 µM |  |  |  |  |  |  |  |  |  |  |  |  | 
20 | CCCCC#Cc1cccc(=O)o1 | > 100 µM | > 100 µM | > 100 µM | > 100 µM |  | > 100 µM | > 100 µM | > 100 µM | > 100 µM | > 100 µM | 25.7 µM | 22.5 µM | 45.6 µM | 7.16 µM | 6.43 µM |  | 7.03 µM | > 100 µM | > 100 µM | > 100 µM
21 | CN(C)CCNC(=O)c1cccc2c1nc(-c1ccccn1)c1ccccc12 | 27.3 µM | 37.3 µM | 27.9 µM |  | 48.8 µM | 39.9 µM | 43.7 µM |  |  |  |  |  |  |  |  |  |  |  |  | 
22 | O=C1c2ccccc2C2(O)Oc3cccc(O)c3C12O (stereo not given) | > 100 µM | > 100 µM | > 100 µM | > 100 µM | > 100 µM | > 100 µM | > 100 µM |  |  |  |  |  |  |  |  |  |  |  |  | 
23 | C=CCNC(=S)OCCCCCCCCCC | 32.7 µM | 43.3 µM | 76.2 µM |  | 29.6 µM | 32.5 µM | 32.6 µM |  |  |  |  |  |  |  |  |  |  |  |  | 
24 | Cc1nn(C)c(=S)n(C)c1=O | > 100 µM | 42.8 µM | 23.8 µM | 0.822 µM | > 100 µM | > 100 µM | 20.3 µM |  |  |  |  |  |  |  |  |  |  |  |  | 
25 | COP1(=S)OCC2CCC[C@@H]2O1 (stereo not given in full) | > 100 µM |  | > 100 µM | > 100 µM | > 100 µM | > 100 µM | > 100 µM | > 100 µM | > 100 µM | > 100 µM |  |  |  |  |  |  |  |  |  | 
26 | CCCCCCCCCC(=O)N[C@H]1CCc2cc(OC)c(OC)c(OC)c2-c2ccc(SC)c(=O)cc21 | > 100 µM | 0.0678 µM | > 100 µM |  | 29.5 µM | 0.0645 µM | 10.4 µM |  |  |  |  |  |  |  |  |  |  |  |  | 
27 | N#Cc1nc(Nc2ccc([N+](=O)[O-])cc2)sc1N | > 100 µM | 97.5 µM | > 100 µM | 32.1 µM | > 100 µM | > 100 µM | > 100 µM |  |  |  |  |  |  |  |  |  |  |  |  | 
